According to ChEMBL document CHEMBL1122523, “2-[[[2-(2,6-Dimethoxyphenoxy)ethyl]amino]-methyl] -1,4-benzoxathian: a new antagonist with high potency and selectivity toward alpha 1-adrenoreceptors” (J Med Chem, 1984):

Columns and labels:
[1] = target: T1, Adrenergic receptor alpha-1 (Rattus norvegicus, UniProt P15823+P23944+P43140); experiment: Alpha-1 adrenergic receptor antagonist activity against agonist (norepinephrine) in isolated rat vas deferens; format: functional, tissue-based
T1 sequence (P15823 whole entry): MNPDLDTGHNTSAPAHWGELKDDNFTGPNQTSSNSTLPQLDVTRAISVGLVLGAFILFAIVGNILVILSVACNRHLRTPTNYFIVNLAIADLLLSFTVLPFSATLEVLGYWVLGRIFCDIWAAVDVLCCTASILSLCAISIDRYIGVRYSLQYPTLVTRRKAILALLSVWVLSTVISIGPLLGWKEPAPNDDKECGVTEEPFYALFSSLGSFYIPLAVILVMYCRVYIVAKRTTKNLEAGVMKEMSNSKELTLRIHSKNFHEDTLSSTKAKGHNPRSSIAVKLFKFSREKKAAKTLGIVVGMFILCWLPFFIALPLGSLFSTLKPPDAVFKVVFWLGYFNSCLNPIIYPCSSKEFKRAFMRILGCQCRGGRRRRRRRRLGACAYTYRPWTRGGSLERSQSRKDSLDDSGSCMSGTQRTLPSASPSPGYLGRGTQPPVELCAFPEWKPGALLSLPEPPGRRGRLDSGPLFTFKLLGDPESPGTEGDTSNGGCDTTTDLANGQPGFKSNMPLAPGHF
T1 sequence (P23944 whole entry): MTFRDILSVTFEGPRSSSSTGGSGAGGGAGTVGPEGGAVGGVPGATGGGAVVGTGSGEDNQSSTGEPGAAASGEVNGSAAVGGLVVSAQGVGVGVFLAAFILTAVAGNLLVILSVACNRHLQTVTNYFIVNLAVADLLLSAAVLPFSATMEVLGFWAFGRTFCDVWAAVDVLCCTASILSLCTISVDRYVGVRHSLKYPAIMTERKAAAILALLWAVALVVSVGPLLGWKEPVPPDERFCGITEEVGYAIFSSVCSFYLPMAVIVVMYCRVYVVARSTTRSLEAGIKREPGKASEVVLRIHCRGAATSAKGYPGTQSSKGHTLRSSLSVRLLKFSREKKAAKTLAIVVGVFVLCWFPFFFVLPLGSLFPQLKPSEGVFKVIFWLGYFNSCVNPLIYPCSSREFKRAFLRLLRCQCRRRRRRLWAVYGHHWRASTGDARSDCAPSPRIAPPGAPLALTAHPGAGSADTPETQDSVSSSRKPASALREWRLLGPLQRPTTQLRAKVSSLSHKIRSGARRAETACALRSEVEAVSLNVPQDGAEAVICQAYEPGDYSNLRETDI
T1 sequence (P43140 whole entry): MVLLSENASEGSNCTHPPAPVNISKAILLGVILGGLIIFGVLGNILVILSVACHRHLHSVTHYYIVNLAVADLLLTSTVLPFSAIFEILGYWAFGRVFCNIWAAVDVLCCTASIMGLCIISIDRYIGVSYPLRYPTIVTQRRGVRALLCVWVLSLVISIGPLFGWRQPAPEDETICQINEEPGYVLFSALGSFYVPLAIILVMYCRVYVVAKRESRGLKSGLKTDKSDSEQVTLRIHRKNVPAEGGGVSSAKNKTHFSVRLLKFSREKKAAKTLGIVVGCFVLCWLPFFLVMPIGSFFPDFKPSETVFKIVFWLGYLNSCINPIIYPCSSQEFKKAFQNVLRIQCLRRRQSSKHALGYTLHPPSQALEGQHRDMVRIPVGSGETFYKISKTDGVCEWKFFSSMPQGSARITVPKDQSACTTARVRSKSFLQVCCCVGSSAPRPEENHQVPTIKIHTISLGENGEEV

[2] = target: T2, Adrenergic receptor alpha-2 (Rattus norvegicus, UniProt P22086+P19328+P22909); experiment: Alpha-2 adrenergic receptor antagonist activity against agonist (clonidine) in isolated rat vas deferens; format: functional, tissue-based
T2 sequence (P22086 whole entry): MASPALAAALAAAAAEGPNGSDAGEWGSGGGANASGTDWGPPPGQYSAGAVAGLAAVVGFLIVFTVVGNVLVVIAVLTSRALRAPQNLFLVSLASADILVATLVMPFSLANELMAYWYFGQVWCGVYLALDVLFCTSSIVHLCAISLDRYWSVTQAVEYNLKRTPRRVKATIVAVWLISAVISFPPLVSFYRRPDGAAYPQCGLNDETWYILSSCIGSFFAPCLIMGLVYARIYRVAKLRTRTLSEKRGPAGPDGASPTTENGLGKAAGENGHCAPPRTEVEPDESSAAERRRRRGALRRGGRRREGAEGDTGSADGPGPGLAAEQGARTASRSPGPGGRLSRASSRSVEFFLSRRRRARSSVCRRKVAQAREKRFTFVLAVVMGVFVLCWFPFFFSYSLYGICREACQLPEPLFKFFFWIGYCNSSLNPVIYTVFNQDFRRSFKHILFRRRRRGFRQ
T2 sequence (P19328 whole entry): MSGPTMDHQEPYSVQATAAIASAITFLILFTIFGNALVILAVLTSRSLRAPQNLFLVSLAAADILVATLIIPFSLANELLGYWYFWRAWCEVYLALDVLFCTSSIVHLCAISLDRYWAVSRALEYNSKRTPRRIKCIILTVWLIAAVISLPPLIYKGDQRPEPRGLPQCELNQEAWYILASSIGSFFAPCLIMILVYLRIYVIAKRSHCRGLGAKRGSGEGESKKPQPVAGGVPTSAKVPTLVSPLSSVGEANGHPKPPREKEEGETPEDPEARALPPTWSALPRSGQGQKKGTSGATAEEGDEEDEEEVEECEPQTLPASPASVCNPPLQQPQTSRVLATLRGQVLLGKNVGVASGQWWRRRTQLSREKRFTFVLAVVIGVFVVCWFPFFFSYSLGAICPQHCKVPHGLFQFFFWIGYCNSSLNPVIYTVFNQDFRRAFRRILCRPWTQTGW
T2 sequence (P22909 whole entry): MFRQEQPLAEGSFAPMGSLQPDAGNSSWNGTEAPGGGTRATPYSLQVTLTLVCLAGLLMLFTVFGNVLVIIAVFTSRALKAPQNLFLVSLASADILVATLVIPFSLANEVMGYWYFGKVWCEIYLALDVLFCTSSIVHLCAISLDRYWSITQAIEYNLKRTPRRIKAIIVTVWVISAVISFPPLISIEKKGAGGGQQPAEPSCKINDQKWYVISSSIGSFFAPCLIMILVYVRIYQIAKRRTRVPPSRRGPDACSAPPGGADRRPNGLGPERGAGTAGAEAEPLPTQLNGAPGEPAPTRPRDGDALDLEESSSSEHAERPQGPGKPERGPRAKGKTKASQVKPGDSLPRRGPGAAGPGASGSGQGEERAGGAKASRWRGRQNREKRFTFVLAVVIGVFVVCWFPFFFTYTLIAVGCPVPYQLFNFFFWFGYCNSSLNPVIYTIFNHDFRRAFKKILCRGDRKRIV

Row | pA2 [1] | pA2 [2] | Compound
1 | 9.26 | 6.26 | COc1cccc(OC)c1OCCNCC1CSc2ccccc2O1.Cl (centres undefined) [BENOXATHIAN HYDROCHLORIDE]
2 | 8.83 | 6.29 | COc1cccc(OC)c1OCCNCC1COc2ccccc2O1.Cl (centres undefined) [2- (2,6-DIMETHOXYPHENOXYETHYL)AMINOMETHYL-1,4-BENZODIOXANE HYDROCHLORIDE (WB 4101)]
